In ChEMBL document CHEMBL3525920, “CYP4F enzymes are responsible for the elimination of fingolimod (FTY720), a novel treatment of relapsing multiple sclerosis” (Drug Metab Dispos, 2011):

Legend:
Liver microsome [1] = test: Drug metabolism in human liver microsomes assessed as metabolite formation at 50 uM treated 15 mins after antibody addition measured after 20 mins by HPLC-RA analysis in presence of CYP2D6-specific monoclonal antibody; type: ADME
Cytochrome P450 2A6 = Cytochrome P450 2A6 (Homo sapiens, UniProt P11509); test: Activity at CYP2A6 in human liver microsomes isolated from donors assessed as metabolite formation after 24 mins by HPLC-RA analysis; type: ADME; conditions: 0.4 h
Chain of Cytochrome P450 2A6 (P11509 whole entry): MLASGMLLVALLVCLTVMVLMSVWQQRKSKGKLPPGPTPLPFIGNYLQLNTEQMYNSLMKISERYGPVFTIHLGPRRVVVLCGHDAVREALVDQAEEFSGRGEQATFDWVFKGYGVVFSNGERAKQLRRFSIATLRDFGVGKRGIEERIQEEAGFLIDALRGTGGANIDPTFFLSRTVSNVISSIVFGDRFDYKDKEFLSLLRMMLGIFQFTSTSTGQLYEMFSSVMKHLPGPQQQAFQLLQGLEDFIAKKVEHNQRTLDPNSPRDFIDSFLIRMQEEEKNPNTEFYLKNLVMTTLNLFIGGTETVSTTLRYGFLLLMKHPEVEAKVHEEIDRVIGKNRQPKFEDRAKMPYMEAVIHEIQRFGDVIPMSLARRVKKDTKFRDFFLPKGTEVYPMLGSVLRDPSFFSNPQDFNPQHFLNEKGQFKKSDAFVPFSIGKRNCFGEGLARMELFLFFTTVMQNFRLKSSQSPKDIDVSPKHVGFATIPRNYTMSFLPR

[2] = Retention time of the compound by C18 advantage armor column based LC-MS analysis; type: physicochemical
Cytochrome P450 2B6 [3] = biological target: T1, Cytochrome P450 2B6 (Homo sapiens, UniProt P20813); test: Activity at human recombinant CYP2B6 expressed in baculovirus-infected BTI-TN-5B1-4 insect cell microsomes assessed as metabolite formation at 5 to 100 uM after 30 mins by HPLC-RA analysis; type: ADME; conditions: bti-tn-5b1-4, 0.5 h
T1 sequence (P20813 whole entry): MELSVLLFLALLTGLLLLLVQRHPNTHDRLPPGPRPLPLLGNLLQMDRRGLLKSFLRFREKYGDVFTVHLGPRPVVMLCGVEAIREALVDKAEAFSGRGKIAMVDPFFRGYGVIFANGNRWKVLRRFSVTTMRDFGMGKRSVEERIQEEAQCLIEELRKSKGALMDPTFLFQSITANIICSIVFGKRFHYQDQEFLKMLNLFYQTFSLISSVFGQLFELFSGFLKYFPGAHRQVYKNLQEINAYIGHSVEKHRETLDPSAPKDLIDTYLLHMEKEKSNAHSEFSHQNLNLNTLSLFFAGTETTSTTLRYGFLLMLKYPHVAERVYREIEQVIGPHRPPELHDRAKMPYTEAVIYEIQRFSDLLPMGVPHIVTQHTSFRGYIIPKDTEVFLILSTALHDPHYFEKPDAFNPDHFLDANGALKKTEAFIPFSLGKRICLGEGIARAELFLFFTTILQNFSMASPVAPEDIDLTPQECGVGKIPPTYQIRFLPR

Liver microsome [4] = test: Drug metabolism in human liver microsomes assessed as total metabolite formation at 1 to 50 uM after 20 mins by HPLC-RA analysis in presence of CYP3A4 mechanism-based inhibitor TAO and NADPH; type: ADME
Cytochrome P450 4F2 = biological target: T2, Cytochrome P450 4F2 (Homo sapiens, UniProt P78329); test: Activity at human recombinant CYP4F2 expressed in baculovirus-infected BTI-TN-5B1-4 insect cell microsomes assessed as metabolite formation at 50 uM by HPLC-RA analysis in presence of anti-CYP4F2; type: ADME; conditions: bti-tn-5b1-4, 50 µM
T2 sequence (P78329 whole entry): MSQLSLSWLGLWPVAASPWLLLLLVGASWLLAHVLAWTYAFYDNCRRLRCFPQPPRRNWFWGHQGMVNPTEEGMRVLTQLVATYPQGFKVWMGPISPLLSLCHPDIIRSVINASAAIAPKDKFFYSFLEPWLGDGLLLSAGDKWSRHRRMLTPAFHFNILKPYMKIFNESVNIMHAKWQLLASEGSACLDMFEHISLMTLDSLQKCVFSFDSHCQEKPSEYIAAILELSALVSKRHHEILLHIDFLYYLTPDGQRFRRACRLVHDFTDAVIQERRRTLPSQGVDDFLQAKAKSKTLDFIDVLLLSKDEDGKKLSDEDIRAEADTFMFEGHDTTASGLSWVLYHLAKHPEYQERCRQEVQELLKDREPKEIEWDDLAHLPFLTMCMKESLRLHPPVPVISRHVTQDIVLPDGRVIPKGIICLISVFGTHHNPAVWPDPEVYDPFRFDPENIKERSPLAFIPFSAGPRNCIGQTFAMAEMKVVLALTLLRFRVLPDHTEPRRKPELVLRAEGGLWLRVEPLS

Cytochrome P450 2C19 [5] = biological target: T3, Cytochrome P450 2C19 (Homo sapiens, UniProt P33261); test: Activity at human recombinant CYP2C19 expressed in baculovirus-infected BTI-TN-5B1-4 insect cell microsomes assessed as metabolite formation at 5 to 100 uM after 30 mins by HPLC-RA analysis; type: ADME; conditions: bti-tn-5b1-4, 0.5 h
T3 sequence (P33261 whole entry): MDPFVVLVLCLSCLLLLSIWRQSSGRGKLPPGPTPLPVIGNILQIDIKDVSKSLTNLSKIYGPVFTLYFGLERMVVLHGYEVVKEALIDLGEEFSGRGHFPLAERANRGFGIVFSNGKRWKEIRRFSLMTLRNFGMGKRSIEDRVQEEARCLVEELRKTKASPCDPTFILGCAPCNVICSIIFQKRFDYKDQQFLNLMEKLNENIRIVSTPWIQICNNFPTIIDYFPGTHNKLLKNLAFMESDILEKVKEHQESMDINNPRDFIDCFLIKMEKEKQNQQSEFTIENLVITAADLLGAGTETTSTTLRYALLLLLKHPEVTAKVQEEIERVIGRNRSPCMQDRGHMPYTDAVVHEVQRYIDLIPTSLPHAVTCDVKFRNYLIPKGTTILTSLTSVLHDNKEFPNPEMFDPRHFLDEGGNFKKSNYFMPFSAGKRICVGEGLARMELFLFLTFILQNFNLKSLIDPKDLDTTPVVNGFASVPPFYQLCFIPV

[6] = Activity at CYP4A in human liver microsomes assessed as metabolite formation after 24 hrs by HPLC-RA analysis; type: ADME
Cytochrome P450 2E1 = Cytochrome P450 2E1 (Homo sapiens, UniProt P05181); test: Activity at CYP2E1 in human liver microsomes isolated from donors assessed as metabolite formation after 24 mins by HPLC-RA analysis; type: ADME; conditions: 0.4 h
Chain of Cytochrome P450 2E1 (P05181 whole entry): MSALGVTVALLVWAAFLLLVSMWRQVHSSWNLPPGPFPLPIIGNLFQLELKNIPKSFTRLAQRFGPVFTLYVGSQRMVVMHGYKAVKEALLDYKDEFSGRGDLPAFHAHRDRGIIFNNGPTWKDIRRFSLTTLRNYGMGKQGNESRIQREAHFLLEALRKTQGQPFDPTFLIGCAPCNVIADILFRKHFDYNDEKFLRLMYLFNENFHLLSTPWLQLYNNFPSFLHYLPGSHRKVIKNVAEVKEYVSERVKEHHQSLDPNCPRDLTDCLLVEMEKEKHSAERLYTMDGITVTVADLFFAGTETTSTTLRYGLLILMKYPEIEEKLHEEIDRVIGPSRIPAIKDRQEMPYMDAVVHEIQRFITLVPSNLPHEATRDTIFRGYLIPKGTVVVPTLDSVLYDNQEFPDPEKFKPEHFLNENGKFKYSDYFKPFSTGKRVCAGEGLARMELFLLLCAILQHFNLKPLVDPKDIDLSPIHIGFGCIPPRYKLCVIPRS

Liver microsome [7] = test: Drug metabolism in human liver microsomes assessed as total metabolite formation at 1 to 50 uM after 20 mins by HPLC-RA analysis in presence of mechanism-based CYP1A2 inhibitor furafylline and NADPH; type: ADME
[8] = Activity at CYP4F in human liver microsomes assessed as intrinsic clearance for metabolite formation after 15 mins measured per mg protein by Eadie-Hofstee plot analysis; type: ADME; conditions: 0.25 h
Cytochrome P450 2B6 [9] = biological target: T1, Cytochrome P450 2B6; test: Activity at CYP2B6 in human liver microsomes isolated from donors assessed as metabolite formation after 24 mins by HPLC-RA analysis; type: ADME; conditions: 0.4 h
Liver microsome [10] = test: Drug metabolism in human liver microsomes assessed as total metabolite formation at 1 to 50 uM after 20 mins by HPLC-RA analysis in presence of CYP2C9 inhibitor sulfaphenazole; type: ADME
Aromatase = Aromatase (Homo sapiens, UniProt P11511); test: Activity at human recombinant CYP19 expressed in baculovirus-infected BTI-TN-5B1-4 insect cell microsomes assessed as metabolite formation at 5 to 100 uM after 30 mins by HPLC-RA analysis; type: ADME; conditions: bti-tn-5b1-4, 0.5 h
Chain of Aromatase (P11511 whole entry): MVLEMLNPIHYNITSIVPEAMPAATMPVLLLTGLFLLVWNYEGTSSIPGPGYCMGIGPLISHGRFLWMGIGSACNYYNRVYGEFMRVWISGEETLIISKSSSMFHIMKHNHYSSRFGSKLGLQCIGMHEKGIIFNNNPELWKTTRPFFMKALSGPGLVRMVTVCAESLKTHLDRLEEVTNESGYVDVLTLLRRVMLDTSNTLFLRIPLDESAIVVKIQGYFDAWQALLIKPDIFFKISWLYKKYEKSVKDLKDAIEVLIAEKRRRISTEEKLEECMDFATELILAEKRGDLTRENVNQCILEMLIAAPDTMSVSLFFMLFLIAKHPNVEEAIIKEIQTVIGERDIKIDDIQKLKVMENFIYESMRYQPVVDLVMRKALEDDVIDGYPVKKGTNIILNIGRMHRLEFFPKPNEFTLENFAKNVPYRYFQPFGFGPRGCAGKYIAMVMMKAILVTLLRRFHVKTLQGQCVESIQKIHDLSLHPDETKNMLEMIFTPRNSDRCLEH

Cytochrome P450 3A4 [11] = biological target: T4, Cytochrome P450 3A4 (Homo sapiens, UniProt P08684); test: Activity at human recombinant CYP3A4 expressed in baculovirus-infected BTI-TN-5B1-4 insect cell microsomes assessed as metabolite formation at 5 to 100 uM after 30 mins by HPLC-RA analysis; type: ADME; conditions: bti-tn-5b1-4, 0.5 h
T4 sequence (P08684 whole entry): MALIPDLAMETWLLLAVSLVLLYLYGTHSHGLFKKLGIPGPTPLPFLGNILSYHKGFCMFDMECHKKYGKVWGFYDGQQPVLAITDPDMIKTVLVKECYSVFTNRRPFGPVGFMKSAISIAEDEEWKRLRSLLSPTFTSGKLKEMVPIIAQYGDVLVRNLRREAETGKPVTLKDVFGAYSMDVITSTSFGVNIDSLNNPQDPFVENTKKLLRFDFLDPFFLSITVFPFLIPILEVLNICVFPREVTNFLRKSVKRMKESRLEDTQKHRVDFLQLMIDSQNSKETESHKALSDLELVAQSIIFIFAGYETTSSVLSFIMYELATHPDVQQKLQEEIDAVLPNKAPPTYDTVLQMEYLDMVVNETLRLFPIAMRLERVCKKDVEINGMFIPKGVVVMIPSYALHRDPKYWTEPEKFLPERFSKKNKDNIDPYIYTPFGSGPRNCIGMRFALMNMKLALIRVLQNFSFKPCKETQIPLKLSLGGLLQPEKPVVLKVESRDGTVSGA

Cytochrome P450 4A11 = Cytochrome P450 4A11 (Homo sapiens, UniProt Q02928); test: Activity at human recombinant CYP4A11 expressed in baculovirus-infected BTI-TN-5B1-4 insect cell microsomes assessed as metabolite formation at 5 to 100 uM after 30 mins by HPLC-RA analysis; type: ADME; conditions: bti-tn-5b1-4, 0.5 h
Chain of Cytochrome P450 4A11 (Q02928 whole entry): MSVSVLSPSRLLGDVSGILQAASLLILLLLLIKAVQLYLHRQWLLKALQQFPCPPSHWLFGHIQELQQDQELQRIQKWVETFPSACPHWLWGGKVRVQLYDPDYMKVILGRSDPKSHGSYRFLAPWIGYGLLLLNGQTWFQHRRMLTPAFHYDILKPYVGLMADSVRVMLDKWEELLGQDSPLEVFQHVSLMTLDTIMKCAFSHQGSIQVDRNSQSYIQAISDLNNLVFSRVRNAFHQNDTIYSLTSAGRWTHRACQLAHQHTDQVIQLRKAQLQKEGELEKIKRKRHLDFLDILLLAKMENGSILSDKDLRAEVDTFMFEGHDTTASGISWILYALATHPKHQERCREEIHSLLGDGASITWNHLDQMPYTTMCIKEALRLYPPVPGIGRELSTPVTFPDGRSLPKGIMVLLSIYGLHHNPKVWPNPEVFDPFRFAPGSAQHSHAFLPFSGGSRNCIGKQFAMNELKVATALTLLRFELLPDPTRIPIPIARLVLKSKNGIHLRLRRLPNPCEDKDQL

Liver microsome [12] = test: Drug metabolism in human liver microsomes assessed as metabolite formation at 50 uM treated 15 mins after antibody addition measured after 20 mins by HPLC-RA analysis in presence of CYP2E1-specific monoclonal antibody; type: ADME
[13] = Activity at FMO in human liver microsomes isolated from donors assessed as metabolite formation after 24 mins by HPLC-RA analysis; type: ADME; conditions: 0.4 h
Cytochrome P450 3A4 [14] = biological target: T4, Cytochrome P450 3A4; test: Activity at CYP3A4 in human liver microsomes isolated from donors assessed as metabolite formation after 24 mins by HPLC-RA analysis; type: ADME; conditions: 0.4 h
Liver microsome [15] = test: Drug metabolism in human liver microsomes assessed as metabolite formation at 50 uM treated 15 mins after antibody addition measured after 20 mins by HPLC-RA analysis in presence of CYP4F2-specific polyclonal antibody; type: ADME
Liver microsome [16] = test: Drug metabolism in human liver microsomes assessed as metabolite M12 (2-amino-2-(4-(8-hydroxyoctyl)phenethyl)propane-1,3-diol) formation at 20 uM after 30 mins by HPLC-RA analysis in presence of NADPH; type: ADME; conditions: 0.5 h
Cytochrome P450 2C8 = Cytochrome P450 2C8 (Homo sapiens, UniProt P10632); test: Activity at CYP2C8 in human liver microsomes isolated from donors assessed as metabolite formation after 24 mins by HPLC-RA analysis; type: ADME; conditions: 0.4 h
Chain of Cytochrome P450 2C8 (P10632 whole entry): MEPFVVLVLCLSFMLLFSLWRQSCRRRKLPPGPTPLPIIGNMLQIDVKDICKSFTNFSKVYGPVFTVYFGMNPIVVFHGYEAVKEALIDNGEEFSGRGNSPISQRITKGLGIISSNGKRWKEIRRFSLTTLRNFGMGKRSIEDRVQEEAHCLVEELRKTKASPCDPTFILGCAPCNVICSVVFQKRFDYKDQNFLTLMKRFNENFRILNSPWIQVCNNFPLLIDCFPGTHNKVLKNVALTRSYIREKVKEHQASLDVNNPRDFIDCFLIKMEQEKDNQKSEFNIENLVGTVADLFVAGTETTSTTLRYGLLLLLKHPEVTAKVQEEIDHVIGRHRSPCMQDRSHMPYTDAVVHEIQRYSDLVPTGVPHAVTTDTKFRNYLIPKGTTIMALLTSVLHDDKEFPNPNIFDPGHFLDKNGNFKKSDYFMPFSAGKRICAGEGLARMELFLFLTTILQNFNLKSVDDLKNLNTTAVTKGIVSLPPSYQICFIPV

Liver microsome [17] = test: Drug metabolism in human liver microsomes assessed as metabolite formation at 50 uM treated 15 mins after antibody addition measured after 20 mins by HPLC-RA analysis in presence of CYP3A4-specific monoclonal antibody; type: ADME
Cytochrome P450 2C18 = Cytochrome P450 2C18 (Homo sapiens, UniProt P33260); test: Activity at human recombinant CYP2C18 expressed in baculovirus-infected BTI-TN-5B1-4 insect cell microsomes assessed as metabolite formation at 5 to 100 uM after 30 mins by HPLC-RA analysis; type: ADME; conditions: bti-tn-5b1-4, 0.5 h
Chain of Cytochrome P450 2C18 (P33260 whole entry): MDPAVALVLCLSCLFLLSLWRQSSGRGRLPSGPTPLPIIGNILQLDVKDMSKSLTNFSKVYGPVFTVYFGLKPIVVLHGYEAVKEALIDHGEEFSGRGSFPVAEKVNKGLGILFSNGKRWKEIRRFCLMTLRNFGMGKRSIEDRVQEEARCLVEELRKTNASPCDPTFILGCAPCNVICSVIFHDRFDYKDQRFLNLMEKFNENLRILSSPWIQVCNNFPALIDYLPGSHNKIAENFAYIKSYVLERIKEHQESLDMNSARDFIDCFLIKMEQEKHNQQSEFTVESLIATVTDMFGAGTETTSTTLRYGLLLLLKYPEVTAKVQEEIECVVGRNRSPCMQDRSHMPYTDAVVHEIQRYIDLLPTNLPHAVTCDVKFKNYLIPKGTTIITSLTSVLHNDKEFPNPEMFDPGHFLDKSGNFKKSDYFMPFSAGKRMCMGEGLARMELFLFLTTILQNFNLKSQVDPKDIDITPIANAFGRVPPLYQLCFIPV

Cytochrome P450 4F12 = Cytochrome P450 4F12 (Homo sapiens, UniProt Q9HCS2); test: Activity at human recombinant CYP4F12 expressed in baculovirus-infected BTI-TN-5B1-4 insect cell microsomes at 10 uM by HPLC-RA analysis in presence of CYP4F2 and CYP4F12 inhibitor ketoconazole; type: ADME; conditions: bti-tn-5b1-4, 10 µM
Chain of Cytochrome P450 4F12 (Q9HCS2 whole entry): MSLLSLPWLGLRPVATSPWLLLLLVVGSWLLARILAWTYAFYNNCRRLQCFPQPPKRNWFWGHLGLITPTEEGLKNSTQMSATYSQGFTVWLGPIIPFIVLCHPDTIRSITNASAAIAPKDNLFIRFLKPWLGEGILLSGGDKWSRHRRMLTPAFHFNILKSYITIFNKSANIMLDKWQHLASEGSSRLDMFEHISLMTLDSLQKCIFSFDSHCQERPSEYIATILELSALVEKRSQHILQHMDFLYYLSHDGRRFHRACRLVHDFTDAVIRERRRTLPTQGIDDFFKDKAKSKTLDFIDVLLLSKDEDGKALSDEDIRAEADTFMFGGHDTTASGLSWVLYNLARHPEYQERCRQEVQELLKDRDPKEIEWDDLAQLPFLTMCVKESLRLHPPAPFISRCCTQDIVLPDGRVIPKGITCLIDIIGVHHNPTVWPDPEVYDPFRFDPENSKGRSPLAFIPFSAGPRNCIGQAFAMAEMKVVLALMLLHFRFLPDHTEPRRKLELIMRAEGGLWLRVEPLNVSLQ

Cytochrome P450 2C19 [18] = biological target: T3, Cytochrome P450 2C19; test: Activity at CYP2C19 in human liver microsomes isolated from donors assessed as metabolite formation after 24 mins by HPLC-RA analysis; type: ADME; conditions: 0.4 h

CCCCCCCCc1ccc(CC[14C](N)(CO)CO)cc1.Cl
10 µL/min/mg: CLint [8]
metabolite_detected: Drug metabolism (Liver microsome [1]) | Drug metabolism (Liver microsome [4]) | Drug metabolism (Liver microsome [7]) | Drug metabolism (Liver microsome [10]) | Drug metabolism (Cytochrome P450 3A4 [11]) | Drug metabolism (Liver microsome [12]) | Drug metabolism (Liver microsome [16]) | Drug metabolism (Liver microsome [17])
42.7 min: Retention_time [2]
metabolite_not_detected: Drug metabolism (Cytochrome P450 2A6) | Drug metabolism (Cytochrome P450 2B6 [3]) | Drug metabolism (Cytochrome P450 4F2) | Drug metabolism (Cytochrome P450 2C19 [5]) | Drug metabolism [6] | Drug metabolism (Cytochrome P450 2E1) | Drug metabolism (Cytochrome P450 2B6 [9]) | Drug metabolism (Aromatase) | Drug metabolism (Cytochrome P450 4A11) | Drug metabolism [13] | Drug metabolism (Cytochrome P450 3A4 [14]) | Drug metabolism (Liver microsome [15]) | Drug metabolism (Cytochrome P450 2C8) | Drug metabolism (Cytochrome P450 2C18) | Drug metabolism (Cytochrome P450 4F12) | Drug metabolism (Cytochrome P450 2C19 [18])
